# Test results from patent publication US20030180345A1, “Compositions and methods for inhibiting islet dysfunction and autoimmune disorders” (priority 2000, published 2003).
# System: NOD mice
# Experiment: Onset of diabetes (glucosurea) in female NOD offspring after maternal taurine supplementation
# Type: in vivo
# From the text: Pregnant NOD mice were obtained and maintained on a control diet as described in Example 13. Pregnant mice were either supplemented with taurine in the drinking water (n=51) or were unsupplemented (n=37) throughout pregnancy. The supplemented group received taurine at a concentration of 2.5% (w/v) in drinking water. Considering the average amount of water consumed, this is equivalent to a taurine consumption of about 0.75 g/day per animal. Taurine supplementation ceased post-partum, and offspring were allowed to nurse for 21 days. […] Onset of diabetes was determined by the appearance of glucosurea which was assessed using glucose detection sticks.
smiles,measurement,setting,value
"NCCS(=O)(=O)O [taurine, 2-aminoethylsulfonic acid]",proportion of female offspring showing diabetes,"at 25 weeks, maternal taurine 2.5% (w/v) in drinking water during pregnancy",about half
same,proportion of taurine-supplemented group still not diabetic,at 50 weeks,about 10%
